Type in all cases: cell-based
Test [1] concerns α-SMA expression in normal human dermal fibroblasts (NHDFs). The test is described as follows: Inhibition of TGF-β-induced differentiation of fibroblasts into myofibroblasts: α-SMA expression by quantitative RT-PCR and Western blot. To be noted: NHDF cultures, TGF-β 10 ng/ml, KSOS 2 mg/ml, D4. The method, then: (§1) Cultures of normal human dermal fibroblasts (NHDFs) were prepared in DMEM/F12 culture medium (sold by the company Invitrogen) supplemented with 10% of fetal calf serum (sold by the company Invitrogen), with 5 μg/ml of insulin (sold by the company Promokine) and with 1 ng/ml of bFGF (sold by the company Promokine).
(§2) For this, the NHDF cultures were placed in a P100 dish coated with collagen at 5 μg/ml in DMEM/F12 medium supplemented with 10% of fetal calf serum and supplemented with 10 ng/ml of TGF-β(sold by the company Promocell), which is a growth factor that controls cell proliferation and differentiation (differentiated control in FIG. 1).
(§3) A nondifferentiated control was also prepared using cultures in DMEM/F12 supplemented with 10% calf serum without TGF-β.
(§4) The KSOS was added to the control and differentiated-control cultures to determine its effect on differentiation, in a proportion of 2 mg/ml.
(§5) The results were analyzed after 4 days of culture.
For the measurement of the inhibitory effect of the compound according to the invention, KSOS was added at 2 mg/ml to the cultures undergoing differentiation. • By quantitative RT-PCR: the mRNA was extracted using the Trizol, chloroform and isopropanol method. • By the Western blot method: total cell extracts were prepared and a Western blot was carried out. […]

For test [2], the system named is collagen lattices seeded with normal human dermal fibroblasts (NHDFs). Briefly: Collagen lattice retraction (area of collagen lattices seeded with NHDFs). To be noted: for % relative to the control: lattice area relative to control without dressing. The method, then:
The collagen lattices were obtained by seeding 0.8×10^6 normal human dermal fibroblasts (NHDFs) in a gel of collagen type I with a final concentration of 1.3 mg/ml.
A dressing (sold under the trade name Urgotul Start) comprising 7.5% of the potassium salt of sucrose octasulfate was applied to the surface of the collagen lattices.
A control series, without dressing, was carried out in order to evaluate the normal contraction of the collagen gel by the seeded NHDFs.
Likewise, a positive control was carried out by adding TGF-β at a concentration of 10 ng/ml in order to visualize the strong contraction induced by the NHDFs highly differentiated into myofibroblasts.
The incubation was maintained up to 7 days.
The effects of the potassium salt of sucrose octasulfate on the retraction of the collagen lattices was observed by means of photographic analysis (FIG. 2) and image analysis measurement of the area of the lattices once contracted.

For test [3], the system named is normal human dermal fibroblasts (NHDFs). The test is described as follows: Differentiation of fibroblasts into myofibroblasts: α-SMA immunofluorescence and counting of differentiated cells. The settings on record: NHDF cultures, TGF-β 10 ng/ml, KSOS 2 mg/ml, 4 days of culture. The method, then: as §1, §2, §3, §4, §5
The cells were fixed with 4% formaldehyde and permeabilized with Triton. The immunolabeling is carried out using DAPI staining (which gives a blue color) for the cell nuclei, a rabbit anti-α-SMA antibody and an anti-rabbit secondary antibody coupled to Cys3 (sold by Promega).
The number of differentiated cells over the total number of cells is determined by cell counting. […]

Regarding `O=S(=O)([O-])OC[C@H]1O[C@@](COS(=O)(=O)[O-])(O[C@H]2O[C@H](COS(=O)(=O)[O-])[C@@H](OS(=O)(=O)[O-])[C@H](OS(=O)(=O)[O-])[C@H]2OS(=O)(=O)[O-])[C@@H](OS(=O)(=O)[O-])[C@@H]1OS(=O)(=O)[O-].[K+].[K+].[K+].[K+].[K+].[K+].[K+].[K+]` [KSOS, potassium salt of sucrose octasulfate], the “α-SMA expression (mRNA by quantitative RT-PCR, protein by Western blot)” value in test [1] is reported as “inhibition of this induction”. Besides, the “contraction of the collagen lattices (in words)” value in test [2] (between day 1 and day 7) is “limits the contraction of the collagen lattices”. In addition, the “differentiation of fibroblasts into myofibroblasts (differentiated cells expressing α-SMA, immunofluorescence)” value in test [3] is listed as “inhibition of the differentiation”.
On to TGF-β, for which the “α-SMA expression (mRNA by quantitative RT-PCR, protein by Western blot)” value in test [1] is “induction of α-SMA expression”. Besides, the “Average of the areas” value in test [2] (Day 1) is 217.3 mm^2; in test [2] (Day 4), 145.9 mm^2; in test [2] (Day 7) it was 97 mm^2. The “% relative to the control” value in test [2] (Day 1) came out at 95%; in test [2] (Day 4), 76%; in test [2] (Day 7) it was 56%.

For the origin of these results see patent US9555053B2, “Use of oligosaccharide compounds for the prevention and treatment of pathological scars” (LABORATOIRES URGO, priority 2011, dated 2017).
